Measured values reported in PubChem BioAssay (NCI).
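96-well plates; 48 h exposure; 5 concentrations. Endpoints by linear interpolation between flanking doses. Not reached: highest tested concentration assigned. At the GI50, growth is halved. TGI: concentration producing complete growth inhibition.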

Columns and labels:
Experiment in all cases: NCI anticancer screen, dose series, 48 h
[1] = test system: MOLT-4 leukemia
[2] = test system: A549 NSCLC
[3] = test system: SK-MEL-2 melanoma
[4] = test system: SW-620 colon
[5] = test system: EKVX NSCLC
[6] = test system: OVCAR-3 ovarian
[7] = test system: ACHN renal
[8] = test system: IGROV1 ovarian
[9] = test system: NCI-H522 lung
[10] = test system: MCF7 breast
[11] = test system: LOX IMVI melanoma
[12] = test system: MDA-MB-231 breast
[13] = test system: HOP-92 NSCLC
[14] = test system: MALME-3M melanoma
[15] = test system: U251 CNS
[16] = test system: RPMI-8226 leukemia
[17] = test system: M14 melanoma
[18] = test system: UO-31 renal
[19] = test system: DU-145 prostate
[20] = test system: MDA-MB-435
[21] = test system: K-562 leukemia
[22] = test system: TK-10 renal
[23] = test system: HCC-2998 colon
[24] = test system: A498 renal
[25] = test system: CCRF-CEM leukemia
[26] = test system: BT-549 breast
[27] = test system: OVCAR-5 ovarian
[28] = test system: T-47D breast
[29] = test system: NCI-H460 lung
[30] = test system: UACC-257 melanoma
[31] = test system: OVCAR-4 ovarian
[32] = test system: HCT-15 colon
[33] = test system: SF-295 CNS
[34] = test system: HL-60(TB) leukemia
[35] = test system: HOP-62 NSCLC
[36] = test system: SK-MEL-28 melanoma
[37] = test system: HCT-116 colon
[38] = test system: NCI-H23 lung
[39] = test system: SF-539 CNS
[40] = test system: OVCAR-8 ovarian
[41] = test system: SN12C renal
[42] = test system: KM12 colon
[43] = test system: CAKI-1 renal
[44] = test system: HS 578T breast
[45] = test system: SK-OV-3 ovarian
[46] = test system: COLO 205 colon
[47] = test system: NCI/ADR-RES ovarian
[48] = test system: SF-268 CNS
[49] = test system: PC-3 prostate
[50] = test system: SR leukemia
[51] = test system: SK-MEL-5 melanoma
[52] = test system: HT29 colon
[53] = test system: 786-0 renal
[54] = test system: RXF 393 renal
[55] = test system: SNB-19 CNS
[56] = test system: UACC-62 melanoma

SMILES: O=C1Nc2ccccc2C1(c1c[nH]c2ccccc12)c1c[nH]c2ccccc12
- GI50 [1]: 3.77 µM
- TGI [1]: 28.9 µM
- GI50 [2]: 2.18 µM
- TGI [2]: 5.31 µM
- GI50 [3]: 2.08 µM
- TGI [3]: 4.51 µM
- GI50 [4]: 3.22 µM
- TGI [4]: 13.1 µM
- GI50 [5]: 1.7 µM
- TGI [5]: 3.84 µM
- GI50 [6]: 2.14 µM
- TGI [6]: 4.84 µM
- GI50 [7]: 1.82 µM
- TGI [7]: 3.58 µM
- GI50 [8]: 2.04 µM
- TGI [8]: 5.09 µM
- GI50 [9]: 2.01 µM
- TGI [9]: 4.71 µM
- GI50 [10]: 2.06 µM
- TGI [10]: 4.74 µM
- GI50 [11]: 1.7 µM
- TGI [11]: 3.32 µM
- GI50 [12]: 2.3 µM
- TGI [12]: 5.96 µM
- GI50 [13]: 1.87 µM
- TGI [13]: 4.95 µM
- GI50 [14]: 2.47 µM
- TGI [14]: 6.93 µM
- GI50 [15]: 2.69 µM
- TGI [15]: 7.49 µM
- GI50 [16]: 4.25 µM
- TGI [16]: 38.5 µM
- GI50 [17]: 2.39 µM
- TGI [17]: 7.17 µM
- GI50 [18]: 1.18 µM
- TGI [18]: 3.04 µM
- GI50 [19]: 2.09 µM
- TGI [19]: 4.2 µM
- GI50 [20]: 3.34 µM
- TGI [20]: 11.7 µM
- GI50 [21]: 3.94 µM
- TGI [21]: > 100 µM
- GI50 [22]: 2.31 µM
- TGI [22]: 5.41 µM
- GI50 [23]: 1.82 µM
- TGI [23]: 3.75 µM
- GI50 [24]: 1.81 µM
- TGI [24]: 3.63 µM
- GI50 [25]: 4.43 µM
- TGI [25]: 45.8 µM
- GI50 [26]: 2.06 µM
- TGI [26]: 4.68 µM
- GI50 [27]: 2.52 µM
- TGI [27]: 7.6 µM
- GI50 [28]: 1.99 µM
- TGI [28]: 4.69 µM
- GI50 [29]: 2.84 µM
- TGI [29]: 8.21 µM
- GI50 [30]: 3.67 µM
- TGI [30]: 16.6 µM
- GI50 [31]: 2.48 µM
- TGI [31]: 7.45 µM
- GI50 [32]: 2.57 µM
- TGI [32]: 7.69 µM
- GI50 [33]: 2.02 µM
- TGI [33]: 4.7 µM
- GI50 [34]: 3.72 µM
- TGI [34]: 37.6 µM
- GI50 [35]: 1.93 µM
- TGI [35]: 4.95 µM
- GI50 [36]: 5.7 µM
- TGI [36]: 20 µM
- GI50 [37]: 2.48 µM
- TGI [37]: 6.29 µM
- GI50 [38]: 2.08 µM
- TGI [38]: 4.48 µM
- GI50 [39]: 2.07 µM
- TGI [39]: 4.31 µM
- GI50 [40]: 2.15 µM
- TGI [40]: 5.18 µM
- GI50 [41]: 1.89 µM
- TGI [41]: 4.29 µM
- GI50 [42]: 2.3 µM
- TGI [42]: 5.96 µM
- GI50 [43]: 1.85 µM
- TGI [43]: 4.37 µM
- GI50 [44]: 2.05 µM
- TGI [44]: 5.16 µM
- GI50 [45]: 2.72 µM
- TGI [45]: 7.74 µM
- GI50 [46]: 1.93 µM
- TGI [46]: 3.86 µM
- GI50 [47]: 2.15 µM
- TGI [47]: 5.03 µM
- GI50 [48]: 2.8 µM
- TGI [48]: 13.9 µM
- GI50 [49]: 2.05 µM
- TGI [49]: 5.75 µM
- GI50 [50]: 4 µM
- TGI [50]: > 100 µM
- GI50 [51]: 2.18 µM
- TGI [51]: 4.81 µM
- GI50 [52]: 3.23 µM
- TGI [52]: 11.4 µM
- GI50 [53]: 2.01 µM
- TGI [53]: 4.11 µM
- GI50 [54]: 1.94 µM
- TGI [54]: 3.76 µM
- GI50 [55]: 2.73 µM
- TGI [55]: 8.35 µM
- GI50 [56]: 1.96 µM
- TGI [56]: 5.09 µM
